# Reference: US10370425B2, “Peptide antagonists of the calcitonin CGRP family of peptide hormones and their use” (priority 2012, dated 2019)
# pIC50: −log10 of the molar value. Positions of bridges follow the written chain, without caps; N, C: chain ends. Residues, ends and D or L forms follow the SMILES beside them. No end group written: not given here.
# Biological target: T1, amylin receptor, AMY1, a CT (calcitonin) receptor/RAMP1 (receptor-activity modifying protein) complex (Homo sapiens, UniProt O60894+P30988)
# T1 construct: host or cells: CHO-K1/AMY1/Gα15
# Experiment: Calcium flux assay (FLIPR Calcium 4) of inhibition of α-CGRP stimulation in CHO-K1/AMY1/Gα15 cells
# Format: cell-based
# Settings: CHO-K1/AMY1/Gα15 calcium flux; read-out: IC50 value
# Description: Using a calcium flux assay, the dose-dependent inhibitory response of peptide antagonists of the present invention on an amylin receptor, AMY1, a CT (calcitonin) receptor/RAMP1 (receptor-activity modifying protein) complex was determined. The recombinant cell line CHO-K1/AMY1/Gα15 (GenScript, Piscataway, N.J., Catalog No. M00475) was employed in the assay. Peptide antagonist activities were tested, in duplicate, at five different concentrations, starting with 1 μM and serially diluted five-fold, in DMSO. AC187 (SEQ ID NO: 55), a known amylin receptor antagonist (available for example from Tocris Bioscience, Minneapolis, Minn., Catalog No. 3419) was used as a positive control in the assays, and human α-CGRP, a known amylin receptor agonist (SEQ ID NO:56) , (available for example from Tocris Bioscience, Minneapolis, Minn., Catalog No. 3012) was used as a positive control in the assays. The FLIPR® Calcium 4 Assay Kit (Molecular Devices, Sunnyvale, Calif.) was used.
# Human α-CGRP having the amino acid sequence, NH2-[…]-NH2 (SEQ ID NO:56) and AC187 having the sequence […] (SEQ ID NO: 55) were employed as negative and positive controls, respectively. Stock solutions were further diluted in HBSS-HEPES buffer to make 5×final control solutions.
# CHO-K1/AMY1/Gα15 cells were seeded in a 384-well black wall, clear bottom plate at a density of 20,000 cells/well in 20 μL of growth medium 20 hours prior to the day of the experiment and maintained at 37° C./5% CO2.
# Per the assay kit protocol, dye-loading solution (at 2×final concentration) was added into the assay plate, 20 μL per well. Compound solution (at 5 ×final concentration) was added into the assay plate, 10 uL per well. The assay plate was placed into a 37° C. incubator for 1 hour, then left for 15 min at RT. The agonist plate (at 5×EC80 concentration) was placed in Source 2. The total reading time was 120 sec. The agonist was added after 20 seconds reading of the baseline and the fluorescence signal was captured for another 100 seconds (21 s to 120 s).
# In screening, cells stimulated with assay buffer were chosen as the background; cells stimulated with agonist (at […] concentration) were chosen as the negative control.
# Data were recorded by ScreenWorks (version 3.1) as FMD files and stored on the GenScript computer network for off-line analysis. Data acquisition and analyses was performed using ScreenWorks (version 3.1) program and exported to Excel. The average value of 20 (1 s to 20 s) seconds reading was calculated as the baseline reading and the relative fluorescent units (ΔRFU) intensity values were calculated with the maximal fluorescent units (21 s to 120 s) subtracting the average value of baseline reading.
# The IC50 value of AC187 was 8 μM. The inhibitory activity of the tested peptide antagonists was normalized with the negative control (AC187) and reported as % Inhibition, calculated from the following equation: % Inhibition=(ΔRFUcompound−ΔRFUBackground)/(ΔRFUNegative control−ΔRFUBackground) * 100% Inhibition was then plotted along the Y-axis, with the test concentrations as indicated on the X-axis. The peptides were tested at indicated concentrations and stimulated with 32 nM (EC80) α-CGRP (Mean +/− SD, n=2).
# T1 sequence (P30988 25-474): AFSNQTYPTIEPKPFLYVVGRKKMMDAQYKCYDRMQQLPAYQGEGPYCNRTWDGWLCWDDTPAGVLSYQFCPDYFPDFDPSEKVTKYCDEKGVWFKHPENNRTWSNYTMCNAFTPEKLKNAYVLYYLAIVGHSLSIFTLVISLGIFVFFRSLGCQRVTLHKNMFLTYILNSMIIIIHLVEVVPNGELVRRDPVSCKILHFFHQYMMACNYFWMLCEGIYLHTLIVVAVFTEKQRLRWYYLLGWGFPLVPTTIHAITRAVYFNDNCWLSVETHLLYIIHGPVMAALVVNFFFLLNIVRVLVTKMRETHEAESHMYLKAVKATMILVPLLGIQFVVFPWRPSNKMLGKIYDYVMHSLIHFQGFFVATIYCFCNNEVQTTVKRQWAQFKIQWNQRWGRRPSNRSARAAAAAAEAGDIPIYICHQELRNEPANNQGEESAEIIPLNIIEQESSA
# T1 sequence (O60894 27-148): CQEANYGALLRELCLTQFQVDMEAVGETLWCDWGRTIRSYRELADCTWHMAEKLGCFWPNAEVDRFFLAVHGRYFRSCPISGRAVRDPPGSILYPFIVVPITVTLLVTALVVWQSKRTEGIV
row,Compound,pIC50
1,"VLGKLSQELHKLQTYPRTNTGSNTY [AC187, reference compound]",5.10

# Same assay, conditions: at maximal test concentration (series starts with 1 μM); CHO-K1/AMY1/Gα15 cells stimulated with 32 nM (EC80) α-CGRP; n = 2; read-out: % Inhibition @ Maximal concentration (Mean +/− SD, n = 2)
row,Compound,inhibition at 1 µM [%]
1,CC(C)C[C@H](NC(=O)[C@H](CCCNC(=N)N)NC(=O)CNC(=O)[C@H](CC(C)C)NC(=O)[C@@H](NC(=O)[C@@H]1CSSC[C@H](NC(=O)[C@H](C)N)C(=O)N[C@@H](CCCNC(=N)N)C(=O)N[C@@H](Cc2ccccc2)C(=O)NCC(=O)N[C@@H](C)C(=O)N1)C(C)C)C(=O)N[C@@H](CO)C(=O)N[C@@H](CCC(N)=O)C(=O)N[C@@H](CCC(=O)O)C(=O)N[C@@H](CC(C)C)C(=O)N[C@@H](Cc1c[nH]cn1)C(=O)N[C@@H](CCCNC(=N)N)C(=O)N[C@@H](CC(C)C)C(=O)N[C@@H](CCC(N)=O)C(=O)N[C@H](C(=O)N[C@@H](Cc1ccc(O)cc1)C(=O)N1CCC[C@H]1C(=O)N[C@@H](CCCNC(=N)N)C(=O)N[C@H](C(=O)N[C@@H](CC(N)=O)C(=O)N[C@H](C(=O)NCC(=O)N[C@@H](CO)C(=O)N[C@@H](CCCCN)C(=O)N[C@@H](C)C(=O)N[C@@H](Cc1ccccc1)C(N)=O)C(C)C)[C@@H](C)O)[C@@H](C)O [compound 6] (H-ACRFGACVLGRLSQELHRLQTYPRTNVGSKAF-NH2; disulfide 2-7 (inferred)),93.9
2,CC(C)C[C@H](NC(=O)CNC(=O)[C@H](C)NC(=O)[C@H](CC(C)C)NC(=O)[C@H](CCCNC(=N)N)NC(=O)[C@H](Cc1c[nH]cn1)NC(=O)[C@@H](NC(=O)[C@@H](NC(=O)[C@@H]1CSSC[C@H](NC(=O)[C@H](C)N)C(=O)N[C@@H](CC(=O)O)C(=O)N[C@@H]([C@@H](C)O)C(=O)N[C@@H](C)C(=O)N[C@@H](C)C(=O)N1)C(C)C)[C@@H](C)O)C(=O)N[C@@H](CC(C)C)C(=O)N[C@@H](CO)C(=O)N[C@@H](CCCNC(=N)N)C(=O)N[C@@H](CO)C(=O)NCC(=O)NCC(=O)N[C@H](C(=O)N[C@H](C(=O)N[C@@H](CCCCN)C(=O)N[C@@H](CC(N)=O)C(=O)N[C@@H](CC(N)=O)C(=O)N[C@@H](Cc1ccccc1)C(=O)N[C@H](C(=O)N1CCC[C@H]1C(=O)N[C@H](C(=O)N[C@@H](CC(N)=O)C(=O)N[C@H](C(=O)NCC(=O)N[C@@H](CO)C(=O)N[C@@H](CCCCN)C(=O)N[C@@H](C)C(=O)N[C@@H](Cc1ccccc1)C(N)=O)C(C)C)[C@@H](C)O)C(C)C)C(C)C)C(C)C [compound 15],23.3
3,CC(C)C[C@H](NC(=O)[C@H](CCCNC(=N)N)NC(=O)CNC(=O)[C@H](CC(C)C)NC(=O)[C@@H](NC(=O)[C@@H]1CSSC[C@H](NC(=O)[C@H](C)N)C(=O)N[C@@H](CC(N)=O)C(=O)N[C@@H](CC(C)C)C(=O)N[C@@H](CO)C(=O)N[C@@H](C)C(=O)N1)C(C)C)C(=O)N[C@@H](CO)C(=O)N[C@@H](CCC(N)=O)C(=O)N[C@@H](CCC(=O)O)C(=O)N[C@@H](CC(C)C)C(=O)N[C@@H](Cc1c[nH]cn1)C(=O)N[C@@H](CCCNC(=N)N)C(=O)N[C@@H](CC(C)C)C(=O)N[C@@H](CCC(N)=O)C(=O)N[C@H](C(=O)N[C@@H](Cc1ccc(O)cc1)C(=O)N1CCC[C@H]1C(=O)N[C@@H](CCCNC(=N)N)C(=O)N[C@H](C(=O)N[C@@H](CC(N)=O)C(=O)N[C@H](C(=O)NCC(=O)N[C@@H](CO)C(=O)N[C@@H](CCCCN)C(=O)N[C@@H](C)C(=O)N[C@@H](Cc1ccccc1)C(N)=O)C(C)C)[C@@H](C)O)[C@@H](C)O [compound 7] (H-ACNLSACVLGRLSQELHRLQTYPRTNVGSKAF-NH2; disulfide 2-7 (inferred)),96
4,CC(C)C[C@H](NC(=O)[C@H](CCCNC(=N)N)NC(=O)CNC(=O)[C@H](CC(C)C)NC(=O)[C@@H](NC(=O)[C@@H]1CSSC[C@H](NC(=O)[C@H](C)N)C(=O)N[C@@H](CC(=O)O)C(=O)N[C@@H]([C@@H](C)O)C(=O)N[C@@H](C)C(=O)N[C@@H](C(C)C)C(=O)N1)C(C)C)C(=O)N[C@@H](CO)C(=O)N[C@@H](CCC(N)=O)C(=O)N[C@@H](CCC(=O)O)C(=O)N[C@@H](CC(C)C)C(=O)N[C@@H](Cc1c[nH]cn1)C(=O)N[C@@H](CCCNC(=N)N)C(=O)N[C@@H](CC(C)C)C(=O)N[C@@H](CCC(N)=O)C(=O)N[C@H](C(=O)N[C@@H](Cc1ccc(O)cc1)C(=O)N1CCC[C@H]1C(=O)N[C@@H](CCCNC(=N)N)C(=O)N[C@H](C(=O)N[C@@H](CC(N)=O)C(=O)N[C@H](C(=O)NCC(=O)N[C@@H](CO)C(=O)N[C@@H](CCCCN)C(=O)N[C@@H](C)C(=O)N[C@@H](Cc1ccccc1)C(N)=O)C(C)C)[C@@H](C)O)[C@@H](C)O [compound 3] (H-ACDTAVCVLGRLSQELHRLQTYPRTNVGSKAF-NH2; disulfide 2-7 (inferred)),95.9
5,CC(C)C[C@H](NC(=O)[C@H](CCCNC(=N)N)NC(=O)CNC(=O)[C@H](CC(C)C)NC(=O)[C@@H](NC(=O)[C@@H]1CSSC[C@H](NC(=O)[C@H](C)N)C(=O)N[C@@H](CC(=O)O)C(=O)N[C@@H]([C@@H](C)O)C(=O)N[C@@H](C)C(=O)N[C@@H](CO)C(=O)N1)C(C)C)C(=O)N[C@@H](CO)C(=O)N[C@@H](CCC(N)=O)C(=O)N[C@@H](CCC(=O)O)C(=O)N[C@@H](CC(C)C)C(=O)N[C@@H](Cc1c[nH]cn1)C(=O)N[C@@H](CCCNC(=N)N)C(=O)N[C@@H](CC(C)C)C(=O)N[C@@H](CCC(N)=O)C(=O)N[C@H](C(=O)N[C@@H](Cc1ccc(O)cc1)C(=O)N1CCC[C@H]1C(=O)N[C@@H](CCCNC(=N)N)C(=O)N[C@H](C(=O)N[C@@H](CC(N)=O)C(=O)N[C@H](C(=O)NCC(=O)N[C@@H](CO)C(=O)N[C@@H](CCCCN)C(=O)N[C@@H](C)C(=O)N[C@@H](Cc1ccccc1)C(N)=O)C(C)C)[C@@H](C)O)[C@@H](C)O [compound 2] (H-ACDTASCVLGRLSQELHRLQTYPRTNVGSKAF-NH2; disulfide 2-7 (inferred)),96.5
6,CC[C@H](C)[C@@H]1NC(=O)[C@H](C)NC(=O)[C@H]([C@@H](C)O)NC(=O)[C@H](CC(=O)O)NC(=O)[C@@H](NC(=O)[C@H](C)N)CSSC[C@@H](C(=O)N[C@H](C(=O)N[C@@H](CC(C)C)C(=O)NCC(=O)N[C@@H](CCCNC(=N)N)C(=O)N[C@@H](CC(C)C)C(=O)N[C@@H](CO)C(=O)N[C@@H](CCC(N)=O)C(=O)N[C@@H](CCC(=O)O)C(=O)N[C@@H](CC(C)C)C(=O)N[C@@H](Cc2c[nH]cn2)C(=O)N[C@@H](CCCNC(=N)N)C(=O)N[C@@H](CC(C)C)C(=O)N[C@@H](CCC(N)=O)C(=O)N[C@H](C(=O)N[C@@H](Cc2ccc(O)cc2)C(=O)N2CCC[C@H]2C(=O)N[C@@H](CCCNC(=N)N)C(=O)N[C@H](C(=O)N[C@@H](CC(N)=O)C(=O)N[C@H](C(=O)NCC(=O)N[C@@H](CO)C(=O)N[C@@H](CCCCN)C(=O)N[C@@H](C)C(=O)N[C@@H](Cc2ccccc2)C(N)=O)C(C)C)[C@@H](C)O)[C@@H](C)O)C(C)C)NC1=O [compound 10] (H-ACDTAICVLGRLSQELHRLQTYPRTNVGSKAF-NH2; disulfide 2-7 (inferred)),96.8
7,CC(C)C[C@H](NC(=O)[C@H](CCCNC(=N)N)NC(=O)CNC(=O)[C@H](CC(C)C)NC(=O)[C@@H](NC(=O)[C@@H]1CSSC[C@H](N)C(=O)N[C@@H](CO)C(=O)N[C@@H](CC(N)=O)C(=O)N[C@@H]([C@@H](C)O)C(=O)N[C@@H](C)C(=O)N[C@@H](C)C(=O)N1)C(C)C)C(=O)N[C@@H](CO)C(=O)N[C@@H](CCC(N)=O)C(=O)N[C@@H](CCC(=O)O)C(=O)N[C@@H](CC(C)C)C(=O)N[C@@H](Cc1c[nH]cn1)C(=O)N[C@@H](CCCNC(=N)N)C(=O)N[C@@H](CC(C)C)C(=O)N[C@@H](CCC(N)=O)C(=O)N[C@H](C(=O)N[C@@H](Cc1ccc(O)cc1)C(=O)N1CCC[C@H]1C(=O)N[C@@H](CCCNC(=N)N)C(=O)N[C@H](C(=O)N[C@@H](CC(N)=O)C(=O)N[C@H](C(=O)NCC(=O)N[C@@H](CO)C(=O)N[C@@H](CCCCN)C(=O)N[C@@H](C)C(=O)N[C@@H](Cc1ccccc1)C(N)=O)C(C)C)[C@@H](C)O)[C@@H](C)O [compound 8] (H-CSNTAACVLGRLSQELHRLQTYPRTNVGSKAF-NH2; disulfide 1-7 (inferred)),95.4

# Same assay, conditions: positive control; CHO-K1/AMY1/Gα15 cells stimulated with α-CGRP; read-out: IC50 nM (assay positive control)
row,Compound,IC50 [nM]
1,"VLGKLSQELHKLQTYPRTNTGSNTY [AC187, reference compound]",8150
